Data from patent US20260070917A1, “CYCLIN DEPENDENT KINASE DEGRADERS AND METHODS OF USE THEREOF” (Differentiated Therapeutics Inc, priority 2023, published 2026).
Like-named read-outs stand apart in the source and are kept apart here.

Tests used:
Type in all cases: cell-based
CDK2 = biological target: T1, CDK2 (Homo sapiens, UniProt P24941); test: HiBit Assay Protocol for CDK2 (HIBIT protein quantification, degradation); conditions: HEK293-CDK2-Hibit cells, compound treatment for 6 hours; for DC50: ABS DC50
T1 construct: host or cells: HEK293-CDK2-Hibit
Method in brief: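 DC50 comes from a fitted curve of remaining CDK2-HiBiT luminescence, referenced to DMSO-treated cells and medium-only wells. HEK293-CDK2-HiBiT cells, plated the previous night, received compounds in a 10-point, 3-fold series for 6 h before lysis with LgBiT-containing Nano-Glo HiBiT reagent.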

CDK9 = biological target: T2, CDK9 (Homo sapiens, UniProt P50750); test: HiBit Assay Protocol for CDK9 (HIBIT protein quantification, degradation); conditions: HEK293-CDK9-Hibit cells, compound treatment for 6 hours; for Dmax: read-out: CDK9 HIBIT Protein Quantification Maximum; for DC50: ABS DC50
T2 construct: host or cells: HEK293-CDK9-Hibit
Method in brief: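 Degradation read-out: luminescence after lytic HiBiT/LgBiT detection in HEK293-CDK9-HiBiT cells exposed 6 h to 10-point, 3-fold compound dilutions. Signal scaled between 0.1% DMSO-treated cells and medium alone; DC50 fitted from the curve.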

CCNE1 [1] = biological target: T3, CCNE1 (Homo sapiens, UniProt P24864); test: HiBit Assay Protocol for CCNE1 (HIBIT protein quantification, degradation); conditions: HEK293-CCNE1-Hibit cells, compound treatment for 6 hours
T3 construct: host or cells: HEK293-CCNE1-Hibit
Method in brief: (§1)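 Degradation readout: lytic Nano-Glo HiBiT luminescence after 6 h exposure of HEK293-CCNE1-HiBiT cells to 10-point, 3-fold serial dilutions. Signal was scaled between medium-only and DMSO-treated wells, and DC50 came from curve fits.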

CCNE1 [2] = biological target: T4, CCNE1 (Homo sapiens, UniProt P24864+P24941); test: as above; conditions: HEK293-CCNE1-Hibit cells, compound treatment for 6 hours, ABS DC50
T4 construct: host or cells: HEK293-CCNE1-Hibit
Method in brief: as §1

T3 sequence (P24864 whole entry): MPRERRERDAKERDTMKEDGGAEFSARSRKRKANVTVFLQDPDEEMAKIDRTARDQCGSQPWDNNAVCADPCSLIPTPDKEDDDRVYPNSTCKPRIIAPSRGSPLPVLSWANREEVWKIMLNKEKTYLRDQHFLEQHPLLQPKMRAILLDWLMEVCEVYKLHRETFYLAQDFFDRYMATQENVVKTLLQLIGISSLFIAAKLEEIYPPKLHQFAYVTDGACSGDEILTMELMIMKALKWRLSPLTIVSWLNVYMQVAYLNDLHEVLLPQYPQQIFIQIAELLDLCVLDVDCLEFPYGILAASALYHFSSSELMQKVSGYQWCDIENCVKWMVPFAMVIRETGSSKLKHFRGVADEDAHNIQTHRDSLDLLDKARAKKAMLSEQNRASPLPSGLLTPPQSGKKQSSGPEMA
T4 sequence (P24864 whole entry, one chain of several): as the sequence (P24864 whole entry) above
T2 sequence (P50750 whole entry): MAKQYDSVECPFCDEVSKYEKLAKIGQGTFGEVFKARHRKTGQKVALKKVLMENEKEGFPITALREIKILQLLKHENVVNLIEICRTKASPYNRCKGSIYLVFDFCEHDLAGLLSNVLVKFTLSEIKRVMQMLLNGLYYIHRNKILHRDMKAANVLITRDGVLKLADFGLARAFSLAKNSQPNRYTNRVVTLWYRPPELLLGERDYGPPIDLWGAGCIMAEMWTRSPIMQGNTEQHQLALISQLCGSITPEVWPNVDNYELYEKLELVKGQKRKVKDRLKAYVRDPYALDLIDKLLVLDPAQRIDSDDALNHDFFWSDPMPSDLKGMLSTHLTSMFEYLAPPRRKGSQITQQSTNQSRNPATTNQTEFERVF

SMILES | CDK2 HIBIT Protein Quantification Maximum (CDK2) | DC50 (CDK2) | Dmax (CDK9; 6 h) | DC50 (CDK9) | CCNE1 HIBIT Protein Quantification Maximum (CCNE1 [1]) | DC50 (CCNE1 [2]) | Dmax (CDK9)
C[C@@H](c1cccc(S(=O)(=O)N2CCC(Nc3ncc4c(n3)N([C@@H]3CCC[C@@H](O)C3)C(=O)C43CC3)CC2)c1)N1CCC(c2ccc3c(N4CCC(=O)NC4=O)nn(C)c3c2)CC1 (single isomer, unassigned) [Compound 152] | 88% | 4.22 nM | 52% | 2170 nM | 53% | 23.6 nM | –
CC(c1cc(S(=O)(=O)N2CC[C@H](Nc3ncc4c(n3)N([C@@H]3CCC[C@@H](O)C3)C(=O)C43CC3)[C@H](F)C2)ccc1F)N1CCC(c2ccc3c(N4CCC(=O)NC4=O)nn(C)c3c2)CC1 (single isomer, unassigned) [Compound 200, 1-(6-{1-[(1R*)-1-{2-Fluoro-5-[(3R,4S)-3-fluoro-4-{7′-[(1R,3R)-3-hydroxycyclohexyl]-6′-oxospiro[cyclopropane-1,5′-pyrrolo[2,3-d]pyrimidin]-2′-ylamino}piperidin-1-ylsulfonyl]phenyl}ethyl]piperidin-4-yl}-1-methylindazol-3-yl)-1,3-diazinane-2,4-dione] | 89% | 3.81 nM | 13% | – | 61% | 9.88 nM | –
Cn1nc(N2CCC(=O)NC2=O)c2cccc(C3CCN(Cc4cccc(S(=O)(=O)N5CCC(Nc6ncc7c(n6)N([C@H]6CCC[C@H](O)C6)C(=O)C76CC6)CC5)c4)CC3)c21 (stereo in doubt) [Compound 146, 1-[7-(1-{[3-(4-{7′-[(1S,3S)-3-hydroxycyclohexyl]-6′-oxospiro[cyclopropane-1,5′-pyrrolo[2,3-d]pyrimidin]-2′-ylamino}piperidin-1-ylsulfonyl)phenyl]methyl}piperidin-4-yl)-1-methylindazol-3-yl]-1,3-diazinane-2,4-dione] | 76% | 30 nM | – | – | 82% | 36.2 nM | 4%
C[C@H]1CCC[C@H]1N1C(=O)C2(CC2)c2cnc(NC3CCN(S(=O)(=O)N(C)CCCN4CCC(c5cccc6c5n(C)c(=O)n6C5CCC(=O)NC5=O)CC4)CC3)nc21 (stereo partly drawn) [Compound 13, N-(3-{4-[1-(2,6-Dioxopiperidin-3-yl)-3-methyl-2-oxo-1,3-benzodiazol-4-yl]piperidin-1-yl}propyl)-N-methyl-4-{7′-[(1R,2S)-2-methylcyclopentyl]-6′-oxospiro[cyclopropane-1,5′-pyrrolo[2,3-d]pyrimidin]-2′-ylamino}piperidine-1-sulfonamide] | 79% | 17.3 nM | – | – | 52.8% | 17.6 nM | –
CC1CCCC1N1C(=O)C2(CC2)c2cnc(NC3CCN(S(=O)(=O)N4CCC5(CCCN5C(=O)CCCCCc5cccc6c5n(C)c(=O)n6C5CCC(=O)NC5=O)C4)CC3)nc21 (stereo not drawn) [Compound 36] | 46% | – | 49% | – | 59% | 515 nM | –
CN(CCCN1CCC(c2cccc3c2n(C)c(=O)n3C2CCC(=O)NC2=O)CC1)S(=O)(=O)c1ccc(Nc2ncc3c(n2)N([C@@H]2CCC[C@@H](O)C2)C(=O)C32CC2)cc1 (stereo partly drawn) [Compound 116, N-(3-(4-(1-(2,6-dioxopiperidin-3-yl)-3-methyl-2-oxo-2,3-dihydro-1H-benzo[d]imidazol-4-yl)piperidin-1-yl)propyl)-4-((7′-((1R,3R)-3-hydroxycyclohexyl)-6′-oxo-6′,7′-dihydrospiro[cyclopropane-1,5′-pyrrolo[2,3-d]pyrimidin]-2′-yl)amino)-N-methylbenzenesulfonamide] | 86% | 14 nM | 81% | 74.9 nM | 75% | 23.2 nM | –
CC1CCCC1N1C(=O)C2(CC2)c2cnc(Nc3ccc(S(=O)(=O)N(C)CCCN4CCC(c5cccc6c5n(C)c(=O)n6C5CCC(=O)NC5=O)CC4)cc3)nc21 (stereo not drawn) [Compound 117, N-(3-(4-(1-(2,6-dioxopiperidin-3-yl)-3-methyl-2-oxo-2,3-dihydro-1H-benzo[d]imidazol-4-yl)piperidin-1-yl)propyl)-N-methyl-4-((7′-(2-methylcyclopentyl)-6′-oxo-6′,7′-dihydrospiro [cyclopropane-1,5′-pyrrolo[2,3-d]pyrimidin]-2′-yl)amino)benzenesulfonamide] | 78% | 10 nM | 65% | 21.8 nM | 64% | 7.43 nM | –
O=C1CCC(N2Cc3cc(CN4CC(Oc5cccc(S(=O)(=O)c6ccc(Nc7ncc8c(n7)N([C@@H]7CCC[C@@H](O)C7)C(=O)C87CC7)cc6)c5)C4)ccc3C2=O)C(=O)N1 (stereo partly drawn) [Compound 125, 3-[5-({3-[3-(4-{7′-[(1R,3R)-3-hydroxycyclohexyl]-6′-oxospiro[cyclopropane-1,5′-pyrrolo [2,3-d]pyrimidin]-2′-ylamino}benzenesulfonyl)phenoxy]azetidin-1-yl}methyl)-1-oxo-3H-isoindol-2-yl]piperidine-2,6-dione] | 54% | 4 nM | – | – | 81% | 2.35 nM | 13%
O=C1CCC(N2Cc3cc(N4CCN(CC5CCN(c6cccc(S(=O)(=O)c7ccc(Nc8ncc9c(n8)N([C@@H]8CCC[C@@H](O)C8)C(=O)C98CC8)cc7)c6)CC5)CC4)ccc3C2=O)C(=O)N1 (stereo partly drawn) [Compound 126, 3-{5-[4-({1-[3-(4-{7′-[(1R,3R)-3-hydroxycyclohexyl]-6′-oxospiro [cyclopropane-1,5′-pyrrolo[2,3-d]pyrimidin]-2′-ylamino}benzenesulfonyl)phenyl]piperidin-4-yl}methyl)piperazin-1-yl]-1-oxo-3H-isoindol-2-yl}piperidine-2,6-dione] | 66% | 6 nM | – | 33.4 nM | 71% | 29.6 nM | 84%
C[C@@H](c1cccc(S(=O)(=O)N2CC[C@H](Nc3ncc4c(n3)N([C@@H]3CCC[C@@H](O)C3)C(=O)C43CC3)[C@H](F)C2)c1)N1CCN(c2ccc3c(N4CCC(=O)NC4=O)nn(C)c3c2)[C@@H](C)C1 [Compound 206] | 91% | 10.9 nM | 13% | – | 43% | – | –
C[C@H](c1cccc(S(=O)(=O)N2CC[C@H](Nc3ncc4c(n3)N([C@@H]3CCC[C@@H](O)C3)C(=O)C43CC3)[C@H](F)C2)c1)N1CCN(c2ccc3c(N4CCC(=O)NC4=O)nn(C)c3c2)[C@@H](C)C1 [Compound 207] | 90% | 3.5 nM | 23% | – | 38% | – | –
C[C@H](c1cccc(S(=O)(=O)N2CC[C@H](Nc3ncc4c(n3)N([C@@H]3CCC[C@@H](O)C3)C(=O)C43CC3)[C@H](F)C2)c1)N1CCN(c2ccc3c(N4CCC(=O)NC4=O)nn(C)c3c2)[C@H](C)C1 [Compound 208] | 91% | 4.62 nM | 14% | – | 45% | – | –
C[C@@H]1CN([C@@H](C)c2cccc(S(=O)(=O)N3CC[C@H](Nc4ncc5c(n4)N([C@@H]4CCC[C@@H](O)C4)C(=O)C54CC4)[C@H](F)C3)c2)CCN1c1ccc2c(N3CCC(=O)NC3=O)nn(C)c2c1 [Compound 209] | 91% | 12.7 nM | 16% | – | 43% | – | –
